Results as given in patent US20240009223A1, “6-THIO-2'-DEOXYGUANOSINE (6-THIO-DG) RESULTS IN TELOMERASE DEPENDENT TELOMERE DYSFUNCTION AND CELL DEATH IN VARIOUS MODELS OF THERAPY-RESISTANT CANCER CELLS” (The Board of Regents of The University of Texas System, priority 2016, published 2024).
Where “and” joins values, the source holds several entries; their conditions need not be identical. Equal values may be shown once.

Tests used:
[1] = tested on: panel of 12 cancer cell lines of 9 different histological origins; assay: Long-term cell growth assay (crystal violet), 12 non-melanoma cancer cell lines; format: cell-based; details: dose of 25 μM; 9-12 days
Protocol: FIGS. 1A-1B show long-term cell growth assay of 12 non-melanoma cancer cell lines (FIG. 1A) and 12 BRAF-mutant melanoma cell lines (FIG. 1B) that were treated with 6-thio-dG (6dG) or BIBR 1532 (BIBR) at indicated doses for 9 to 12 days.
Treatment of a Variety of Cancer Cell Lines with Telomerase-directed 6-thio-dG Impairs Cell Viability. […] To further confirm the inhibitory effect of 6-thio-dG, a panel of 12 cancer cell lines of 9 different histological origins was treated with 6-thio-dG for 9-12 days. As the control for 6-thio-dG, a known telomerase inhibitor, BIBR 1532, was also included. In most cases, these cancer cell lines were sensitive to 6-thio-dG administered at a dose of 2.5 μM and higher (FIG. 1A).

PEO1-CR = assay: Relative cell viability, PEO1-CR; format: cell-based, human; details: 5 days
Protocol: (§1) Additionally, the efficacy of 6-thio-dG was tested using two human ovarian cancer cell lines, PEO4 and PEO1-CR. PEO4 is a derivative line of BRCA1/2-mutant PEO1 that regains homologous recombination by BRCA reversion mutation. […] Importantly, all three cell lines were sensitive to 6-thio-dG after the 5-day treatment (FIGS. 14H-14J).

PEO4 = assay: Relative cell viability, PEO4; format: cell-based, human; details: 5 days
Protocol: as §1

PEO1 = assay: Relative cell viability, PEO1; format: cell-based, human; details: 5 days
Protocol: as §1

WO-24-2 = assay: Relative cell viability, patient-derived culture WO-24-2; format: cell-based, human; details: carboplatin at indicated doses, 5 days
Description: A short-term primary culture, WO-24-2 from a therapy-resistant human ovarian cancer, was also established. The WO-24-2 tumor was resected from a patient with high grade serous ovarian cancer who underwent an interval debulking surgery after receiving neoadjuvant chemotherapy with platinum/taxane and subsequently progressed on platinum chemotherapy. Immunofluorescence staining of PAX8 and cytokeratin 7 confirmed that these were indeed human ovarian cancer cells (FIG. 14K) (George et al., 2017).

[2] = tested on: metastatic melanoma (BRAF mutation); assay: Targeted therapy patients' clinical response; format: in vivo, human; details: one patient per row; vemurafenib 1920 mg daily
Protocol: (§2) Ethics Statement. All clinical data and patient samples were collected following approval by the Massachusetts General Hospital institutional review board and the Hospital of the University of Pennsylvania institutional review board. In all cases informed consent was obtained. All animal studies were conducted in accordance with the Guide for the Care and Use of Laboratory Animals of the NIH. Mice were maintained according to the guidelines of the Wistar Institutional Animal Care and Use Committee (IACUC), and study designs were approved by the Wistar IACUC.
In addition to treatment-naïve human melanoma, paired pre-, on- and post-treatment tumor biopsies derived from patients with metastatic melanoma who were treated with targeted therapies or immune checkpoint blockade therapies were analyzed.

metastatic melanoma = assay: Immune checkpoint therapy patient's clinical response; format: in vivo, human; details: patient #39, previously progressed on other therapies
Protocol: as §2
RNA-seq of 31 paired pre-, on- and/or post-treatment tumor biopsies derived from 12 patients who were treated with various immune checkpoint blockade therapies were carried out. […] The ssGSEA identified that “packaging of telomere ends” and “telomere maintenance” were highly enriched in 7 out 12 patients' on- or post-treatment tumor biopsies (FIG. 11). […] Prior to pembrolizumab, this patient progressed on vemurafenib, IL-2, ipilimumab, and dabrafenib plus trametinib. It was observed that “telomere maintenance” and “packaging of telomere ends” were highly enriched in this patient's on-treatment tumor biopsy compared to the paired pre-treatment tumor biopsy (FIG. 9F and Table 8). 00449194) 96

For `C/C(=C\C(=O)Nc1ccccc1C(=O)O)c1ccc2ccccc2c1` [BIBR 1532, reference compound], the anti-proliferative activity [1] was “observed in a subset of 12 cancer cell lines”.

`N.N.O=C([O-])C1(C(=O)[O-])CCC1.[Pt+2]` [carboplatin, reference compound] was tested, and the “sensitivity (relative cell viability)” value (PEO1-CR) was “acquired resistance”, the “sensitivity (relative cell viability)” value (PEO4) was “intrinsically resistant” and the “sensitivity (relative cell viability)” value (PEO1) was “sensitive”. The “sensitivity (relative cell viability)” value (WO-24-2) was “resistant”.

In the case of `CCCS(=O)(=O)Nc1ccc(F)c(C(=O)c2c[nH]c3ncc(-c4ccc(Cl)cc4)cc23)c1F` [vemurafenib], the “Response (value in parentheses)” value [2] is reported as −16.5% and −51.2% and −53% and −24.9% and −81.5% and −60.5% and −56% and −27% and the “Time To Progression” value [2] is reported as 6 months and 5 months and 2 months and 4.3 months and PD at 9 months and 13.4 months and 8.5 months and 3.5 months and 6.5 months.

pembrolizumab: anti-PD-1 drug was tested, and the best response (metastatic melanoma) was “progressive disease”.
